Results from publication PMC8831520, “Small molecule SWELL1 complex induction improves glycemic control and nonalcoholic fatty liver disease in murine Type 2 diabetes” (Nature Communications, 2022).
pIC50: −log10 of the molar value. Entries after “also recorded” stand apart in the source; their conditions may differ.

Legend:
eWAT adipocytes = assay: Adipocyte size in eWAT of treated mice; type: in vivo, mouse; settings: 5 days, vs vehicle
Procedure: Mice epididymal white adipose tissue (eWAT) was isolated and fixed in 10% neutral buffer formalin for 24 h at 4 °C. The formalin-fixed eWAT tissue was washed twice with 1XPBS buffer and dehydrated in a series of ethanol gradient. The dehydrated tissue was embedded in paraffin wax and 10 μm sections were cut by automated microtome and mounted on positively charged slides. Hematoxylin and eosin staining of the slides was performed at the Musculoskeletal Research Center, Washington University in St. Louis. Images were captured by Zeiss Axioscop with 10X objective and analyzed by ImageJ software. Measurement of adipocyte area was performed using the polygon selection tool of ImageJ. All quantifications were performed by blinded independent observers.

ICl,SWELL = test system: ICl,SWELL; design: method as in PMID 11724753; settings: cited from earlier work
[1] = test system: insulin-AKT2-AS160 signaling in 3T3-F442A cells; assay: Insulin-stimulated AKT2-AS160 signaling western blot; type: cell-based, murine; settings: 96 h
Procedure: Adipocytes were washed twice in ice-cold phosphate buffer saline and lysed in RIPA buffer (150 mM NaCl, 20 mM HEPES, 1% NP-40, 5 mM EDTA, pH 7.4) with proteinase/phosphatase inhibitors (Roche). The cell lysate was further sonicated in 10 s cycle intervals 2–3 times and centrifuged at 18,407×g for 30 min at 4 °C and repeated one more time to remove the excess fat. The supernatant was collected and further estimated for protein concentration using a DC protein assay kit (Bio-Rad). Fat and liver tissues were homogenized and suspended in RIPA buffer with inhibitors and further processed in a similar fashion as described above. HUVECs were also prepared in a similar fashion except the lysates were spun only once to remove the cells debris to obtain the clear supernatant. For islets, either human or mouse islets were washed twice with phosphate buffer saline (PBS) and lysed using RIPA buffer containing protease and phosphatase inhibitors. The lysate was further clarified by freezing in liquid nitrogen for about 10 s for three cycles. The supernatant was collected from the whole lysate centrifuged at 16,260×g for 20 min at 4 °C. […] For soleus muscle, the tissue was homogenized in a Bullet Blender homogenizer (Speed-9, Time-3 mins) in 8 volumes of ice-cold muscle homogenization buffer (50 mM Tris, 25 mM NaCl, 0.2% Nonidet P-40, 5 mM EGTA, 2.5 mM EDTA, 20 mM NaF, 20 mM Na4P2O7·10H2O, 2 mM Na3VO4, pH 7.4) supplemented with protease/phosphatase inhibitor (Roche). The homogenized lysate was centrifuged two times at 18,500×g for 20 min at 4 °C and supernatant was collected for protein estimation. Protein samples were further prepared by boiling in 2X or 4X Laemmli buffer. Approximately 10–60 µg of total protein was loaded in 4–15% gradient gel (Bio-Rad) for separation and protein transfer was carried out onto the PVDF membranes (Bio-Rad). […] The images were further analyzed for band intensities using ImageJ software. […]

[2] = design: method as in PMID 3306216; settings: cited from earlier work
[3] = test system: T1, SWELL1 protein in adipose tissue; assay: SWELL1 protein in adipose tissue of treated T2D mice; type: in vivo, mouse
T1 construct: from tissue; host or cells: eWAT of HFD-fed C57BL/6 mice; inguinal fat of KKA^y mice
Procedure: All compounds were dissolved in Kolliphor® EL (Sigma, #C5135).
Adipocytes were washed twice in ice-cold phosphate buffer saline and lysed in RIPA buffer (150 mM NaCl, 20 mM HEPES, 1% NP-40, 5 mM EDTA, pH 7.4) with proteinase/phosphatase inhibitors (Roche). The cell lysate was further sonicated in 10 s cycle intervals 2–3 times and centrifuged at 18,407×g for 30 min at 4 °C and repeated one more time to remove the excess fat. The supernatant was collected and further estimated for protein concentration using a DC protein assay kit (Bio-Rad). Fat and liver tissues were homogenized and suspended in RIPA buffer with inhibitors and further processed in a similar fashion as described above. HUVECs were also prepared in a similar fashion except the lysates were spun only once to remove the cells debris to obtain the clear supernatant. For islets, either human or mouse islets were washed twice with phosphate buffer saline (PBS) and lysed using RIPA buffer containing protease and phosphatase inhibitors. The lysate was further clarified by freezing in liquid nitrogen for about 10 s for three cycles. The supernatant was collected from the whole lysate centrifuged at 16,260×g for 20 min at 4 °C. […] The images were further analyzed for band intensities using ImageJ software. […]

CCCCC1(C2CCCC2)Cc2cc(OCCCC(=O)O)c(Cl)c(Cl)c2C1=O (stereo not drawn) [SN-401, 4-((2-butyl-6,7-dichloro-2-cyclopentyl-1-oxo-2,3-dihydro-1H-inden-5-yl)oxy)butanoic acid]
adipocyte size (eWAT adipocytes; HFD-fed mice): unchanged; also recorded: no significant differences
adipocyte size reduction (eWAT adipocytes; KKAy mice): 9%
pIC50 (ICl,SWELL): ~5.30
insulin-stimulated levels of pAS160 ([1]; 500 nM, WT adipocytes): enhanced
insulin-stimulated levels of pAKT2 ([1]; 10 µM preadipocytes, 500 nM adipocytes): enhanced
effects on insulin-AKT2-AS160 signaling in SWELL1 KO adipocytes ([1]; SWELL1 KO 3T3-F442A adipocytes, 500 nM): absent
diuretic activity [2]: minimal diuretic activity
SWELL1 expression in adipose tissue ([3]; HFD-fed T2D mice, 5 mg/kg i.p.): twofold
SWELL1 expression in adipose tissue ([3]; KKAy T2D mice, 5 mg/kg i.p. × 5 days): threefold
